Laboratory results published in PMC11669914, “Identification and characterization of a novel chromosome-encoded aminoglycoside O-nucleotidyltransferase gene, ant(9)-Id, in Providencia sp. TYF-12 isolated from the marine fish intestine” (Frontiers in Microbiology, 2024).
Values after ≈ are worked out from the molar mass of the structure shown.

How the values were obtained:
[1] = tested on: CN[C@@H]1[C@H](O)[C@H](NC)[C@H]2O[C@@]3(O)C(=O)C[C@@H](C)O[C@H]3O[C@@H]2[C@H]1O; assay: purified protein; format: biochemical, Providencia rettgeri; conditions: 2 mM ATP, 10 mM MgCl2, 50 mM HEPES pH 7.5, 500 μM DTT, 37 °C
[2] = tested on: T1, Enterococcus faecalis ATCC29212; assay: microbe, parasite or virus in culture; parameters: CLSI agar dilution MIC, bacterial growth inhibition
T1 construct: ATCC 29212
Excerpt: (§1) In accordance with the standards of the Clinical and Laboratory Standards Institute (CLSI),^1 the agar dilution method was used to determine the minimum inhibitory concentration (MIC). E. coli ATCC 25922 served as a quality control for antibiotic susceptibility testing. The tested antimicrobial agents included spectinomycin, tobramycin, streptomycin, netilmicin, paromomycin and amikacin (Table 2).

[3] = tested on: T2, Escherichia coli ACTT25922; assay: microbe, parasite or virus in culture; parameters: CLSI agar dilution MIC, bacterial growth inhibition
T2 construct: ATCC 25922
Excerpt: as §1

| Molecule | Km [1] [µM] | kcat [1] [s⁻¹] | kcat/Km [1] [M⁻¹ s⁻¹] | MIC [2] [µg/mL] | MIC [3] [µg/mL] |
| --- | --- | --- | --- | --- | --- |
| ANT(9)-Id (Providencia rettgeri) | 8.94 ± 2.50 | 232 ± 59.8 | 2.62e+07 ± 2.95e+06 | – | – |
| C[C@H]1c2cccc(O)c2C(=O)C2=C(O)[C@]3(O)C(=O)C(C(N)=O)=C(O)[C@@H](N(C)C)[C@@H]3[C@@H](O)[C@@H]21 [doxycycline] | – | – | – | 4 (≈ 9 µM) | 1 (≈ 2.25 µM) |
| O=C(N[C@H](CO)[C@H](O)c1ccc([N+](=O)[O-])cc1)C(Cl)Cl [chloramphenicol] | – | – | – | 4 (≈ 12.4 µM) | 4 (≈ 12.4 µM) |
| CC(=O)c1c(C)[n+]([O-])c2ccccc2[n+]1[O-] [mequindox] | – | – | – | 64 (≈ 293 µM) | 8 (≈ 36.7 µM) |
| CN(C)[C@@H]1C(O)=C(C(N)=O)C(=O)[C@@]2(O)C(O)=C3C(=O)c4c(O)cccc4[C@@](C)(O)[C@H]3C[C@@H]12 [tetracycline] | – | – | – | 8 (≈ 18 µM) | 1 (≈ 2.25 µM) |
| C=C[C@]1(C)C[C@@H](OC(=O)CSCCN(CC)CC)[C@]2(C)[C@H](C)CC[C@]3(CCC(=O)[C@H]32)[C@@H](C)[C@@H]1O [tiamulin] | – | – | – | 64 (≈ 130 µM) | > 512 |
| CN[C@@H]1[C@H](O[C@H]2[C@H](O[C@H]3[C@H](O)[C@@H](O)[C@H](N=C(N)N)[C@@H](O)[C@@H]3N=C(N)N)O[C@@H](C)[C@]2(O)C=O)O[C@@H](CO)[C@H](O)[C@H]1O [streptomycin] | – | – | – | 128 (≈ 220 µM) | 8 (≈ 13.8 µM) |
| CC(C)(O/N=C(\C(=O)N[C@@H]1C(=O)N2C(C(=O)[O-])=C(C[n+]3ccccc3)CS[C@H]12)c1csc(N)n1)C(=O)O [ceftazidime] | – | – | – | 128 (≈ 234 µM) | ≤ 1 |
